From patent US20210137941A1 (ZARODEX THERAPEUTICS LIMITED, priority 2018, published 2021)

How the values were obtained:
[1] = no clear dose-dependent relationship; not significant beyond 30 days; cited from earlier work
[2] = tested on: splenic B cell and T cell populations; assay: Wild type mouse study: spleen immunophenotyping by flow cytometry; format: in vivo, C57BL/6 mice
[3] = tested on: circulating immunoglobulins; assay: Wild type mouse study: circulating immunoglobulin profile by ELISA; format: in vivo, C57BL/6 mice; settings: clozapine 5 and 10 mg/kg, haloperidol 1 mg/kg, IP 21 days; FIG. 24
[4] = tested on: bone marrow B cell subsets; assay: Wild type mouse study: bone marrow B cell immunophenotyping by flow cytometry; format: in vivo, C57BL/6 mice; settings: 1 mg/kg IP, 21 days
CD20 = molecular target: T1, CD20 (Homo sapiens, UniProt P11836); settings: cited from earlier work
T1 construct: host or cells: patients' own B cells
T1 sequence (P11836 1-297): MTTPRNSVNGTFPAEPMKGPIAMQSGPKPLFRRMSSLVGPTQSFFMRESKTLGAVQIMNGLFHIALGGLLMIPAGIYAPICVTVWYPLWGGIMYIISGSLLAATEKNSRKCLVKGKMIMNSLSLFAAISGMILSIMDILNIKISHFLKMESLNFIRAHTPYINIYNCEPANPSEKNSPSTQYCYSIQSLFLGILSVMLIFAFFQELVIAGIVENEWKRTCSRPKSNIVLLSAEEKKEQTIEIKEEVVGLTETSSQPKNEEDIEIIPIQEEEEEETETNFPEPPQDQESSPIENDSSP

IgE = settings: cited from earlier work
Chain of IgE (P01854 1-425 limits assumed): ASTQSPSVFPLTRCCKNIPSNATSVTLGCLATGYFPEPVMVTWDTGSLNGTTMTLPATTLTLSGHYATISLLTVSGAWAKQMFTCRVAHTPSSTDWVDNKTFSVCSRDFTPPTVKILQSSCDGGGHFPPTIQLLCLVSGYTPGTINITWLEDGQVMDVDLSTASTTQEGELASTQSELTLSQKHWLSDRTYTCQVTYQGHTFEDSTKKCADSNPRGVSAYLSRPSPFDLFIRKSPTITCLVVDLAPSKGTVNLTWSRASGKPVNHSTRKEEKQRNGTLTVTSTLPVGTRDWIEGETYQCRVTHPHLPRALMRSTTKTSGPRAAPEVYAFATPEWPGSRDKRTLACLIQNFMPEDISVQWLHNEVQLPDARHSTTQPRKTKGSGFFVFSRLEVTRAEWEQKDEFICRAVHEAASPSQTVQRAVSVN

Molecule: Cc1cc2c(s1)Nc1ccccc1N=C2N1CCN(C)CC1 [olanzapine]
- risk of pneumonia requiring hospitalization [1]: modestly increased risk

Molecule: O=C(CCCN1CCC(O)(c2ccc(Cl)cc2)CC1)c1ccc(F)cc1 [haloperidol]
- activated T cells (B220+TCR-beta+) in spleen vs control ([2]; clozapine 2.5-10 mg/kg, haloperidol 1 mg/kg, IP 21 days, FIG. 21): modestly apparent
- impact on B cell subpopulations ([2]; comparator, 1 mg/kg IP, 21 days): not observed
- circulating IgA levels compared to control [3]: not observed
- early developing B cell subsets in bone marrow (overall B, pre-pro B, pro-B) ([4]; FIG. 18): no significant effect
- effect on long-lived plasma cells in the bone marrow ([4]; FIG. 20): no effect

Molecule: Cc1nc2n(c(=O)c1CCN1CCC(c3noc4cc(F)ccc34)CC1)CCCC2 [risperidone]
- risk of pneumonia requiring hospitalization [1]: modestly increased risk

Molecule: rituximab: anti-CD-20 antibody used for B cell depletion
- clinical outcome in Churg-Strauss syndrome (CD20; Mohammad et al., 2016): clinically effective in inducing remission or partial responses
- clinical outcome in atopic dermatitis (CD20; Simon et al., 2008): substantial clinical improvement
- reduction of B cells in the skin, atopic dermatitis (CD20; Simon et al., 2008): ~50%
- effect on IgE levels (CD20; van Vollenhoven et al., 2013): modest

Molecule: omalizumab: humanised monoclonal anti-IgE antibody
- treatment of refractory chronic spontaneous urticaria (IgE; 2 phase II and 4 phase III trials (Chang et al., 2015)): efficacious and safe
- clinical efficacy in allergic rhinitis (IgE; Holgate et al., 2005, Tsabouri et al., 2014): clinically effective
- effect in refractory/relapsing Churg-Strauss syndrome (IgE; Jachiet et al., 2016): corticosteroid-sparing effect
- efficacy in atopic individuals with coexisting eye disease (IgE; Kopp et al., 2009): has shown efficacy
- burden of asthma symptoms (IgE; inner city children and young adults (Busse et al., 2011)): significant reduction
- clinical outcome in eosinophilic oesophagitis (IgE; pilot study (Loizou et al., 2015)): clinical improvement in a proportion of patients

Molecule: OCCOCCN1CCN(C2=Nc3ccccc3Sc3ccccc32)CC1 [quetiapine]
- risk of pneumonia requiring hospitalization [1]: modestly increased risk
